Laboratory results reported in the supplement of paper PMC10307832.

Tests used:
Assay in all cases: relative viability (nuclei count vs DMSO), 5 days (fraction); higher = more cells survive
[1] = compound: C1CC(C2=C(C1)C3=C(N2)C=CC(=C3)Cl)C(=O)N [Selisistat] + O=C(c1cc(Cc2n[nH]c(=O)c3ccccc23)ccc1F)N1CCN(C(=O)C2CC2)CC1 [Olaparib] (partner 8 µM)
Outline: (§1)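 Values are medians from duplicate plates. Each reflects relative viability, defined as the nuclei count of treated wells over that of vehicle wells. Lung cancer cell lines in 1536-well plates were pin-tool dosed one day after seeding with one drug alone or with a fixed anchor-drug dose plus five library-drug doses (not always all listed) in √10 steps, then fixed, stained and imaged at 4× after 5 days.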

[2] = compound: C1CC(C2=C(C1)C3=C(N2)C=CC(=C3)Cl)C(=O)N [Selisistat] + Nc1nc2[nH]cc(CCc3ccc(C(=O)N[C@@H](CCC(=O)O)C(=O)O)cc3)c2c(=O)[nH]1 [Pemetrexed] (partner 0.2 µM)
Outline: as §1

[3] = compound: c1ccc2c(CCNc3ccc(Nc4ccncc4)cc3)c[nH]c2c1 [Serdemetan] + O=C(CCCCCCC(=O)Nc1ccccc1)NO [Vorinostat] (partner 1 µM)
Outline: as §1

[4] = compound: c1ccc2c(CCNc3ccc(Nc4ccncc4)cc3)c[nH]c2c1 [Serdemetan] + CS(=O)(=O)N1CCN(Cc2cc3nc(-c4cccc5[nH]ncc45)nc(N4CCOCC4)c3s2)CC1 [Pictilisib] (partner 1 µM)
Outline: as §1

Cell Line	relative viability ([1]; first compound 0.4 µM)	relative viability ([1]; first compound 1.265 µM)	relative viability ([1]; first compound 4 µM)	relative viability ([1]; first compound 12.65 µM)	relative viability ([1]; first compound 40 µM)	relative viability ([2]; first compound 0.4 µM)	relative viability ([2]; first compound 1.265 µM)	relative viability ([2]; first compound 4 µM)	relative viability ([2]; first compound 12.65 µM)	relative viability ([2]; first compound 40 µM)	relative viability ([3]; first compound 0.04 µM)	relative viability ([3]; first compound 0.1265 µM)	relative viability ([3]; first compound 0.4 µM)	relative viability ([3]; first compound 1.265 µM)	relative viability ([3]; first compound 4 µM)	relative viability ([4]; first compound 0.04 µM)	relative viability ([4]; first compound 0.1265 µM)	relative viability ([4]; first compound 0.4 µM)	relative viability ([4]; first compound 1.265 µM)	relative viability ([4]; first compound 4 µM)
201T	0.85	0.841	0.827	0.823	0.843	0.325	0.299	0.364	0.343	0.324	0.974	0.996	0.883	0.879	0.715	0.707	0.712	0.67	0.655	0.664
A549	0.439	0.299	0.267	0.324	0.314	–	–	–	–	–	–	–	–	–	–	0.537	0.558	0.517	0.264	0.262
A-427	0.853	0.779	–	0.829	0.692	0.996	1.04	–	1.07	0.988	0.854	0.849	0.867	0.779	0.709	0.787	0.704	0.607	0.49	0.599
ABC-1	0.715	0.686	–	0.876	0.69	–	–	–	–	–	0.985	0.949	0.989	0.832	0.787	0.674	0.673	0.616	0.367	0.294
BEN	1.08	1.03	1.06	1.06	1.04	0.876	0.614	0.532	0.698	0.68	0.603	0.54	0.688	0.615	0.514	0.57	0.529	0.565	0.535	0.496
CAL-12T	0.765	0.675	0.689	0.782	0.769	1.29	1.25	1.3	1.12	1.23	0.857	0.82	0.748	0.922	0.627	–	0.521	–	0.369	0.368
COR-L23	0.409	0.331	0.406	0.367	0.335	0.182	0.212	0.193	0.19	0.2	0.441	0.434	0.392	0.412	0.362	0.665	0.767	0.785	0.598	0.752
COR-L 105	0.703	0.67	0.815	0.659	0.576	1.16	1.07	1.16	0.869	1.1	0.863	0.96	0.758	0.861	0.645	0.366	0.486	0.322	0.427	0.37
Calu-6	0.561	0.572	0.634	0.552	0.617	–	–	–	–	–	–	–	–	–	–	0.912	0.888	0.888	0.647	0.621
ChaGo-K-1	0.439	0.409	0.438	0.351	0.388	0.237	0.247	0.257	0.36	0.231	0.741	0.697	0.77	0.329	0.331	–	0.832	0.649	0.421	0.659
EBC-1	0.763	0.732	0.711	0.728	0.66	–	–	–	–	–	–	–	–	–	–	0.35	0.449	0.451	0.411	0.368
EKVX	0.872	0.886	0.752	0.869	0.818	0.348	0.314	0.361	0.342	0.404	0.798	0.719	–	0.462	0.546	0.532	0.414	0.352	0.441	0.425
EMC-BAC-2	0.577	0.504	0.676	0.371	0.405	0.406	0.422	0.522	0.331	0.352	0.463	0.471	0.495	0.379	0.399	0.564	0.556	0.507	0.508	0.502
EPLC-272H	0.888	0.787	0.626	0.749	0.657	0.257	0.315	0.317	0.336	0.284	0.396	0.654	0.532	0.304	0.218	0.365	0.348	0.293	0.27	0.33
H3255	0.505	0.538	0.571	0.549	0.539	0.556	0.556	0.528	0.552	0.526	0.701	0.797	–	0.487	0.73	0.5	0.403	0.423	0.497	0.435
HARA	0.695	0.651	–	0.785	0.85	0.266	0.27	–	0.303	0.215	0.527	0.565	0.492	0.483	0.274	0.385	0.411	0.408	–	0.347
HCC-15	0.822	0.712	0.855	0.675	0.743	0.241	0.222	–	0.23	0.213	0.848	0.83	0.704	0.681	0.456	0.753	0.821	0.708	0.567	0.638
HCC-44	0.992	1.01	1.01	1.02	1.18	0.681	0.675	0.655	0.685	0.691	1.05	1.12	1.05	1.05	0.825	0.513	0.668	0.501	0.481	0.689
HCC-78	0.893	0.795	0.82	0.833	0.88	0.917	0.949	0.924	0.774	0.878	0.464	0.432	0.483	0.388	0.339	0.207	0.201	0.155	0.192	0.245
